Results published in patent US20110105457A1, “HETEROCYCLIC COMPOUND HAVING INHIBITORY ACTIVITY ON PI3K” (SHIONOGI & CO., LTD., priority 2008, published 2011).

Target: PI-3 kinase γ (Homo sapiens, UniProt P48736)
Test: PI3Kγ inhibitory activity, PI3-kinase HTRF assay (Millipore)
Assay type: biochemical
Details: 0.5 h; compound 50 μM; read-out: Inhibition ratio % (50 μM)
Description: (Method) The PI3Kγ inhibitory activity of a compound was evaluated using PI3-kinase HTRF™ assay (Millipore) according to the following procedure.
To each well of a testing plate was added 5 μL of a compound solution comprising 10% DMSO (200 μM as the concentration of the compound), 5 μL of 40 μM phosphatidylinositol (4,5)-bisphosphate/20 mM MgCl2/10 mM DTT, and 5 μL of 80 μg/mL PI-3 kinase γ/10 mM MgCl2/5 mM DTT, and then stood for 10 minutes.
Then, 5 μL of 40 μM ATP/10 mM MgCl2/5 mM DTT was added thereto. After reacting for 30 minutes at room temperature, 5 μL of a solution comprising EDTA and biotinylated phosphatidylinositol (3,4,5)-triphosphate was added to quench the reaction.
5 μL of a detection reagent comprising a europium-labeled anti-GST antibody, the GST-tagged PH domain, and allophycocyanin-labeled streptavidin was added thereto. After 18 hours, HTRF (excitation wavelength: 330 nm, measuring wavelengths: 620 nm and 665 nm) was measured.
A value of dividing an amount of fluorescence obtained at the measuring wavelength 665 nm by an amount of fluorescence obtained at 620 nm was defined as an HTRF ratio. The HTRF ratio in the absence of a compound was defined as 100% activity, and the HTRF ratio in the absence of PI-3 kinase γ was defined as 0% activity to calculate an inhibition ratio.

PI-3 kinase γ, sequence (P48736 whole entry): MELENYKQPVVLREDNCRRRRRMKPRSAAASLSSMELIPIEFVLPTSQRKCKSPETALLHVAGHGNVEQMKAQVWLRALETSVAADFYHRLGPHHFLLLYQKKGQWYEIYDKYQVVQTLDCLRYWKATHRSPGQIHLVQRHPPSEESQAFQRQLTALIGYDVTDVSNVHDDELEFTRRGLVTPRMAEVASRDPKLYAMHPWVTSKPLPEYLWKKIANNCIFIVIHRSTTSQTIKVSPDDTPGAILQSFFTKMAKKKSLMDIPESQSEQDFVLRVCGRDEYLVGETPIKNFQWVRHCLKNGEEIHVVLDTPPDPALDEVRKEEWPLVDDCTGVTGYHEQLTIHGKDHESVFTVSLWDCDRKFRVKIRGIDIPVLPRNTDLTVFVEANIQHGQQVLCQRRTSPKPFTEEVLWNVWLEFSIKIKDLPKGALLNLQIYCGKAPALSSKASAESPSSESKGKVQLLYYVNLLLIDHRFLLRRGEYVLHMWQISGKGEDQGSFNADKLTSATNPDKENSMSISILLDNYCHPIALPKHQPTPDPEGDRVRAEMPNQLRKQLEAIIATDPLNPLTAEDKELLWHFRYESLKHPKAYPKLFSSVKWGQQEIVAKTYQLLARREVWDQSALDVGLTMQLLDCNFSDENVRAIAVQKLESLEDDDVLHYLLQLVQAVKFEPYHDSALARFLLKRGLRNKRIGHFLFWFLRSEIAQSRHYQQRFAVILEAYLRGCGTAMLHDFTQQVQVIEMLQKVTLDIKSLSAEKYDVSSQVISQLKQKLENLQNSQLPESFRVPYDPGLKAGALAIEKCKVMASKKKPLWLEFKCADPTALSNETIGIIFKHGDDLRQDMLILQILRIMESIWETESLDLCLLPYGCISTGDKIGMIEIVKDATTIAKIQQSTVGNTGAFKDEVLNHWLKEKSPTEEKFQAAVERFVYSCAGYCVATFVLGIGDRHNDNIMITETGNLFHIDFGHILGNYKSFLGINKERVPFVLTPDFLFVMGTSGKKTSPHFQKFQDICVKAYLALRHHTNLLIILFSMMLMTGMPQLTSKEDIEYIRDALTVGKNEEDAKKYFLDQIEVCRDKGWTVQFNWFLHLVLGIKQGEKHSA

SMILES | inhibition at 50 µM
CNC(=O)Nc1cn2nc(NC(=O)c3cccc(Cl)c3)ccc2n1 [Compound I-103] | 60%
CNC(=O)Nc1cn2nc(-c3cccc(OCc4ccccc4)c3)ccc2n1 [Compound I-150] | 71%
COc1cccc(-c2ccc3nc(NC(=O)Nc4ccsc4)cn3n2)c1 [Compound I-111] | 55%
COc1cccc(-c2ccc3nc(NC(=O)Cc4ccccc4OC)cn3n2)c1 [Compound I-174] | 78%
CNC(=O)Nc1cn2nc(C(=O)NCc3ccc(OC)cc3)ccc2n1 [Compound I-44] | 57%
CNC(=O)Nc1cn2nc(-c3ccc(C)cc3)ccc2n1 [Compound I-66] | 77%
CNC(=O)Nc1cn2nc(-c3cccc(-c4ccccc4)c3)ccc2n1 [Compound I-155] | 57%
COc1cccc(-c2ccc3nc(NC(=O)NCCCl)cn3n2)c1 [Compound I-116] | 76%
COc1cccc(-c2ccc3nc(NC(=O)[C@H]4CCCCN4C(=O)OC(C)(C)C)cn3n2)c1 [Compound I-207] | 64%
CNC(=O)Nc1cn2nc(NC(=O)Nc3ccccc3)ccc2n1 [Compound I-5] | 60%
CNC(=O)Nc1cn2nc(C(=O)Nc3ccc(O)cc3)ccc2n1 [Compound I-41] | 83%
CNC(=O)Nc1cn2nc(-c3cccc(SC)c3)ccc2n1 [Compound I-135] | 80%
CNC(=O)Nc1cn2nc(Nc3cccc(C(=O)OC)c3)ccc2n1 [Compound I-105] | 73%
CNC(=O)Nc1cn2nc(Nc3cccc(O)c3)ccc2n1 [Compound I-85] | 111%
COc1cccc(-c2ccc3nc(NC(=O)CNC(C)=O)cn3n2)c1 [Compound I-175] | 66%
CNC(=O)Nc1cn2nc(-c3cncnc3)ccc2n1 [Compound I-145] | 70%
CNC(=O)Nc1cn2nc(-c3ccsc3)ccc2n1 [Compound I-38] | 91%
CNC(=O)Nc1cn2nc(-c3ccc(Cl)cc3)ccc2n1 [Compound I-60] | 64%
CNC(=O)Nc1cn2nc(N3CCOC3=O)ccc2n1 [Compound I-122] | 61%
COc1cccc(-c2ccc3nc(NC(=O)c4ccncc4)cn3n2)c1 [Compound I-170] | 60%
CNC(=O)Nc1cn2nc(-c3ccc(OC)nc3)ccc2n1 [Compound I-148] | 83%
CNC(=O)Nc1cn2nc(C(=O)NCCOC)ccc2n1 [Compound I-49] | 64%
CNC(=O)Nc1cn2nc(COc3ccccc3)ccc2n1 [Compound I-157] | 58%

SMILES | inhibition at 50 µM
CNC(=O)Nc1cn2nc(-c3cccc(N)c3)ccc2n1 [Compound I-57] | 84%
CNC(=O)Nc1cn2nc(-c3cccc(C(C)C)c3)ccc2n1 [Compound I-127] | 79%
CNC(=O)Nc1cn2nc(-c3ccc(C(C)=O)cc3)ccc2n1 [Compound I-56] | 77%
CNC(=O)Nc1cn2nc(-c3cccc(COC(C)(C)C)c3)ccc2n1 [Compound I-131] | 70%
CNC(=O)Nc1cn2nc(-c3ccc(C#N)cc3)ccc2n1 [Compound I-71] | 69%
COc1cccc(-c2ccc3nc(NC(=O)c4cccc(N5CCN(C)CC5)c4)cn3n2)c1 [Compound I-203] | 68%
COc1cccc(-c2ccc3nc(NC(=O)c4ccccn4)cn3n2)c1 [Compound I-168] | 64%
CNC(=O)Nc1cn2nc(-c3cccc(NS(C)(=O)=O)c3)ccc2n1 [Compound I-74] | 89%
COc1cccc(-c2ccc3nc(NC(=O)NC4CCCCC4)cn3n2)c1 [Compound I-109] | 99%
CNC(=O)Nc1cn2nc(Nc3ccccc3)ccc2n1 [Compound I-7] | 77%
CNC(=O)Nc1cn2nc(-c3cccc(OC)c3)ccc2n1 [Compound I-36] | 90%
CNC(=O)Nc1cn2nc(C(=O)Nc3ccc4[nH]ccc4c3)ccc2n1 [Compound I-45] | 74%
COc1cccc(-c2ccc3nc(NC(=O)CC(C)(C)C)cn3n2)c1 [Compound I-186] | 78%
CNC(=O)Nc1cn2nc(Cl)ccc2n1 [Compound I-1] | 72%
CNC(=O)Nc1cn2nc(-c3ccncc3)ccc2n1 [Compound I-147] | 77%
CNC(=O)Nc1cn2nc(-c3ccc(NS(C)(=O)=O)cc3)ccc2n1 [Compound I-73] | 70%
CNC(=O)Nc1cn2nc(Nc3cccc(OC)c3)ccc2n1 [Compound I-39] | 69%
CNC(=O)Nc1cn2nc(NC(C)=O)ccc2n1 [Compound I-101] | 59%
COc1cccc(-c2ccc3nc(Nc4ccccc4)cn3n2)c1 [Compound I-27] | 69%
CNC(=O)Nc1cn2nc(-c3cccc(Cl)c3)ccc2n1 [Compound I-59] | 52%
CNC(=O)Nc1cn2nc(C(=O)Nc3cccc(C(=O)O)c3)ccc2n1 [Compound I-33] | 57%
CNC(=O)Nc1cn2nc(-c3cccc(C(=O)N4CCOCC4)c3)ccc2n1 [Compound I-138] | 75%
CNC(=O)Nc1cn2nc(Nc3cccc(N(C)C)c3)ccc2n1 [Compound I-161] | 102%

Second part, the compound after the results:

inhibition at 50 µM | SMILES
64% | COc1cccc(-c2ccc3nc(NC(=O)NN4CCc5ccccc54)cn3n2)c1 [Compound I-269]
62% | COc1cccc(-c2ccc3nc(NC(=O)NCCC(=O)N4CCOCC4)cn3n2)c1 [Compound I-268]
68% | CCOC(=O)CCNC(=O)Nc1cn2nc(-c3cccc(OC)c3)ccc2n1 [Compound I-259]
59% | COc1cccc(-c2ccc3nc(Nc4ccccn4)cn3n2)c1 [Compound I-220]
73% | COc1cccc(-c2ccc3nc(NC(=O)N4CCC[C@H]4CO)cn3n2)c1 [Compound I-240]
81% | COc1cccc(-c2ccc3nc(NC(=O)CCCN4CCCC4=O)cn3n2)c1 [Compound I-209]
78% | CNC(=O)Nc1cn2nc(Cc3cccc(OC)c3)ccc2n1 [Compound I-282]
92% | COc1cccc(-c2ccc3nc(Nc4cccc(O)n4)cn3n2)c1 [Compound I-290]
111% | COc1cccc(-c2ccc3nc(Nc4cccc(CO)c4)cn3n2)c1 [Compound I-284]
87% | COCCCNC(=O)Nc1cn2nc(-c3cccc(OC)c3)ccc2n1 [Compound I-244]
60% | COc1cccc(-c2ccc3nc(NC(=O)CN(C)C(=O)OC(C)(C)C)cn3n2)c1 [Compound I-212]
61% | COc1cccc(-c2ccc3nc(NC(=O)C4CCN4C(C)(C)C)cn3n2)c1 (stereo not drawn) [Compound I-211]
70% | CNC(=O)Nc1cn2nc(Nc3cccc(C(N)=O)c3)ccc2n1 [Compound I-215]
76% | COc1cccc(-c2ccc3nc(NC(=O)NCC4COCCO4)cn3n2)c1 (stereo not drawn) [Compound I-258]
87% | COc1cccc(-c2ccc3nc(NC(=O)NN(C)C)cn3n2)c1 [Compound I-276]
101% | COc1ccc(Nc2cn3nc(-c4cccc(OC)c4)ccc3n2)cc1 [Compound I-287]

inhibition at 50 µM | SMILES
77% | COc1cccc(-c2ccc3nc(NC(=O)NCc4ccoc4)cn3n2)c1 [Compound I-254]
87% | COc1cccc(-c2ccc3nc(Nc4cccc([N+](=O)[O-])c4)cn3n2)c1 [Compound I-286]
51% | COc1cccc(-c2ccc3nc(NC(=O)Nc4nccs4)cn3n2)c1 [Compound I-232]
59% | COc1cccc(-c2ccc3nc(NC(=O)N4CCC[C@H]4C(=O)OC(C)(C)C)cn3n2)c1 [Compound I-249]
78% | CNC(=O)Nc1cn2nc(Sc3cccc(OC)c3)ccc2n1 [Compound I-281]
81% | COc1cccc(-c2ccc3nc(NC(=O)NCCCN)cn3n2)c1 [Compound I-278]
74% | COc1cccc(-c2ccc3nc(NC(=O)NCCNC(C)=O)cn3n2)c1 [Compound I-237]
74% | COc1cccc(-c2ccc3nc(NC(C)=O)cn3n2)c1 [Compound I-291]
83% | CCOC(=O)CCCNC(=O)Nc1cn2nc(-c3cccc(OC)c3)ccc2n1 [Compound I-257]
55% | CNC(=O)Nc1cn2nc(Nc3cccc(C(=O)NC)c3)ccc2n1 [Compound I-216]
73% | COCCC(=O)Nc1cn2nc(-c3cccc(OC)c3)ccc2n1 [Compound I-213]
74% | COc1cccc(-c2ccc3nc(NC(=O)NCc4cccnc4)cn3n2)c1 [Compound I-239]
71% | COc1cccc(-c2ccc3nc(NC(=O)NCc4ccco4)cn3n2)c1 [Compound I-234]
59% | COC[C@H]1CCCN1C(=O)Nc1cn2nc(-c3cccc(OC)c3)ccc2n1 [Compound I-261]
62% | CNC(=O)Nc1cn2nc(COc3cccc(C(=O)OC)c3)ccc2n1 [Compound I-217]
67% | COc1cccc(-c2ccc3nc(NC(=O)Nc4ccc5[nH]ccc5c4)cn3n2)c1 [Compound I-241]
